According to PubChem BioAssay (NCI):
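All cell lines were grown in 96-well plates and treated with compound for 48 hours. GI50 = concentration required for 50% inhibition of growth. TGI denotes the concentration required for complete inhibition of growth.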

How the values were obtained:
Experiment in all cases: DTP human tumour cell line panel, 48 h
HL-60(TB) leukemia = test system: HL-60(TB) leukemia
PC-3 prostate = test system: PC-3 prostate
CAKI-1 renal = test system: CAKI-1 renal
LOX IMVI melanoma = test system: LOX IMVI melanoma
ACHN renal = test system: ACHN renal
HOP-92 NSCLC = test system: HOP-92 NSCLC
UACC-62 melanoma = test system: UACC-62 melanoma
SK-OV-3 ovarian = test system: SK-OV-3 ovarian
NCI-H23 lung = test system: NCI-H23 lung
OVCAR-4 ovarian = test system: OVCAR-4 ovarian
A549 NSCLC = test system: A549 NSCLC
SR leukemia = test system: SR leukemia
MDA-MB-231 breast = test system: MDA-MB-231 breast
KM12 colon = test system: KM12 colon
BT-549 breast = test system: BT-549 breast
HCT-15 colon = test system: HCT-15 colon
SF-268 CNS = test system: SF-268 CNS
UACC-257 melanoma = test system: UACC-257 melanoma
A498 renal = test system: A498 renal
HCT-116 colon = test system: HCT-116 colon
IGROV1 ovarian = test system: IGROV1 ovarian
MDA-MB-435 = test system: MDA-MB-435
CCRF-CEM leukemia = test system: CCRF-CEM leukemia
HOP-62 NSCLC = test system: HOP-62 NSCLC
OVCAR-3 ovarian = test system: OVCAR-3 ovarian
HT29 colon = test system: HT29 colon
K-562 leukemia = test system: K-562 leukemia

COC(=O)N[C@H]1CCc2c(Br)c(OC)c(OC)c(OC)c2-c2ccc(SC)c(=O)cc21
TGI (HL-60(TB) leukemia): < 0.01 µM | GI50 (PC-3 prostate): < 0.01 µM | TGI (PC-3 prostate): 32.6 µM | GI50 (CAKI-1 renal): < 0.0209 µM | TGI (CAKI-1 renal): 21.9 µM | GI50 (LOX IMVI melanoma): < 0.01 µM | TGI (LOX IMVI melanoma): 12 µM | GI50 (ACHN renal): < 0.01 µM | TGI (ACHN renal): 25.4 µM | GI50 (HOP-92 NSCLC): < 0.0171 µM | TGI (HOP-92 NSCLC): 5.17 µM | GI50 (UACC-62 melanoma): < 0.01 µM | TGI (UACC-62 melanoma): 18 µM | GI50 (SK-OV-3 ovarian): < 0.01 µM | TGI (SK-OV-3 ovarian): > 100 µM | GI50 (NCI-H23 lung): < 0.01 µM | TGI (NCI-H23 lung): 18.5 µM | GI50 (OVCAR-4 ovarian): 0.152 µM | TGI (OVCAR-4 ovarian): > 57 µM | GI50 (A549 NSCLC): < 0.01 µM | TGI (A549 NSCLC): > 52.6 µM | GI50 (SR leukemia): < 0.01 µM | TGI (SR leukemia): 22.4 µM | GI50 (MDA-MB-231 breast): < 0.01 µM | TGI (MDA-MB-231 breast): 14 µM | GI50 (KM12 colon): < 0.01 µM | TGI (KM12 colon): 10.6 µM | GI50 (BT-549 breast): < 0.01 µM | TGI (BT-549 breast): 14.9 µM | GI50 (HCT-15 colon): < 0.01 µM | TGI (HCT-15 colon): 11.6 µM | GI50 (SF-268 CNS): < 0.01 µM | TGI (SF-268 CNS): 16.6 µM | GI50 (UACC-257 melanoma): 11.4 µM | TGI (UACC-257 melanoma): 61.2 µM | GI50 (A498 renal): < 0.01 µM | TGI (A498 renal): < 0.01 µM | GI50 (HCT-116 colon): < 0.01 µM | TGI (HCT-116 colon): 11.5 µM | GI50 (IGROV1 ovarian): < 0.01 µM | TGI (IGROV1 ovarian): > 39.5 µM | GI50 (MDA-MB-435): < 0.01 µM | TGI (MDA-MB-435): < 0.01 µM | GI50 (CCRF-CEM leukemia): < 0.01 µM | TGI (CCRF-CEM leukemia): 24.9 µM | GI50 (HOP-62 NSCLC): < 0.01 µM | TGI (HOP-62 NSCLC): > 100 µM | GI50 (OVCAR-3 ovarian): < 0.01 µM | TGI (OVCAR-3 ovarian): < 0.01 µM | GI50 (HT29 colon): < 0.01 µM | TGI (HT29 colon): 18.8 µM | GI50 (K-562 leukemia): < 0.01 µM | TGI (K-562 leukemia): 15.9 µM
